Laboratory results taken from ChEMBL document CHEMBL5352456, “Isocyanides in med chem: A scaffold hopping approach for the identification of novel 4-isocyanophenylamides as potent antibacterial agents against methicillin-resistant Staphylococcusaureus” (Eur J Med Chem, 2023).
Converted amounts (≈) assume the structure as drawn. The source made the active and inactive calls. The rule behind the calls is not given here.

Key:
[1] = tested on: Staphylococcus aureus; assay: Anti-biofilm activity in Staphylococcus aureus ATCC 6538 assessed as inhibition of biofilm formation upto 128 uM measured for 24 hrs by MTT assay; format: functional, organism-based
[2] = tested on: Staphylococcus aureus; assay: Antibacterial activity against Staphylococcus aureus ATCC 6538 assessed as reduction in microbial growth measured for 16 to 20 hrs by microdilution assay; format: functional; conditions: time 16-20 hrs
[3] = tested on: HaCaT; assay: Cytotoxicity against human HaCaT cells assessed as reduction in cell viability measured at 64 to 128 uM measured for 24 hrs by MTT assay; format: toxicity, cell-based; conditions: dose 64-128 µM
[4] = tested on: Staphylococcus epidermidis; assay: Antibacterial activity against Staphylococcus epidermidis ATCC 49134 assessed as reduction in microbial growth measured for 16 to 20 hrs by microdilution assay; format: functional; conditions: time 16-20 hrs
[5] = tested on: Staphylococcus aureus; assay: Bactericidal activity against methicillin-resistant Staphylococcus aureus ATCC 43300 incubated for 24 hrs by time kill assay; format: functional
[6] = tested on: Staphylococcus aureus; assay: Anti-biofilm activity in Staphylococcus aureus ATCC 6538 assessed as inhibition of biofilm formation at 16 uM measured for 24 hrs by MTT assay; format: functional; design: scale not given: the % may be the effect or the level left
[7] = tested on: Staphylococcus aureus; assay: Antibacterial activity against Staphylococcus aureus ATCC 6538 assessed as reduction in cell surface hydrophobicity; format: functional, organism-based
[8] = tested on: Staphylococcus aureus; assay: Antibacterial activity against Staphylococcus aureus ATCC 25923 assessed as reduction in microbial growth measured for 16 to 20 hrs by microdilution assay; format: functional; conditions: time 16-20 hrs
[9] = tested on: Staphylococcus aureus; assay: Resistance development in methicillin-resistant Staphylococcus aureus ATCC 43300 assessed as fold increase in MIC after 10 passage; format: functional
[10] = tested on: Staphylococcus aureus; assay: Antibacterial activity against methicillin-resistant Staphylococcus aureus ATCC 43300 assessed as reduction in microbial growth by microdilution assay; format: functional
[11] = tested on: Osteoblast; assay: Cytotoxicity against human Osteoblast cells assessed as reduction in cell viability measured at 128 uM measured for 24 hrs by MTT assay; format: toxicity, cell-based
[12] = tested on: HaCaT; assay: Cytotoxicity against human HaCaT cells assessed as reduction in cell viability measured at 128 uM measured for 24 hrs by MTT assay; format: toxicity, cell-based
[13] = tested on: Osteoblast; assay: Cytotoxicity against human Osteoblast cells assessed as reduction in cell viability measured at 64 to 128 uM measured for 24 hrs by MTT assay; format: toxicity, cell-based; conditions: dose 64-128 µM
[14] = tested on: Staphylococcus aureus; assay: Induction of cell membrane permeability in Staphylococcus aureus ATCC 6538; format: functional, organism-based
[15] = tested on: Klebsiella pneumoniae; assay: Antibacterial activity against Klebsiella pneumoniae ATCC 700603 assessed as inhibition of bacterial growth measured for 16 to 20 hrs by microdilution assay; format: functional; conditions: time 16-20 hrs
[16] = tested on: Staphylococcus aureus; assay: Antibacterial activity against Staphylococcus aureus ATCC 29213 assessed as reduction in microbial growth measured for 16 to 20 hrs by microdilution assay; format: functional; conditions: time 16-20 hrs
[17] = tested on: Staphylococcus epidermidis; assay: Antibacterial activity against Staphylococcus epidermidis ATCC 35984 assessed as reduction in microbial growth measured for 16 to 20 hrs by microdilution assay; format: functional; conditions: time 16-20 hrs
[18] = tested on: Escherichia coli; assay: Antibacterial activity against Escherichia coli ATCC 25922 assessed as inhibition of bacterial growth measured for 16 to 20 hrs by microdilution assay; format: functional; conditions: time 16-20 hrs
[19] = tested on: Pseudomonas aeruginosa; assay: Antibacterial activity against Pseudomonas aeruginosa ATCC 10145 assessed as inhibition of bacterial growth measured for 16 to 20 hrs by microdilution assay; format: functional; conditions: time 16-20 hrs
[20] = tested on: Staphylococcus aureus; assay: Bactericidal activity against methicillin-resistant Staphylococcus aureus ATCC 43300 measured for 24 hrs by time kill assay; format: functional, organism-based
[21] = tested on: Staphylococcus aureus; assay: Antibacterial activity against methicillin-resistant Staphylococcus aureus ATCC 43300 assessed as reduction in microbial growth measured for 16 to 20 hrs by microdilution assay; format: functional; conditions: time 16-20 hrs
[22] = tested on: Staphylococcus aureus; assay: Additive antibacterial activity against methicillin-resistant Staphylococcus aureus assessed as fractional inhibitory concentration index in presence of tetracycline by checker board method; format: functional
[23] = tested on: Staphylococcus epidermidis; assay: Antibacterial activity against Staphylococcus epidermidis ATCC 12228 assessed as reduction in microbial growth measured for 16 to 20 hrs by microdilution assay; format: functional; conditions: time 16-20 hrs
[24] = tested on: Staphylococcus aureus; assay: Anti-biofilm activity in Staphylococcus aureus ATCC 6538 assessed as inhibition of biofilm formation at 128 uM measured for 24 hrs by MTT assay; format: functional; design: scale not given: the % may be the effect or the level left
[25] = tested on: Staphylococcus aureus; assay: Antibacterial activity against methicillin-resistant Staphylococcus aureus ATCC 33592 assessed as reduction in microbial growth measured for 16 to 20 hrs by microdilution assay; format: functional; conditions: time 16-20 hrs
[26] = tested on: Acinetobacter baumannii; assay: Antibacterial activity against Acinetobacter baumannii assessed as inhibition of bacterial growth; format: functional
[27] = tested on: Pseudomonas aeruginosa; assay: Antibacterial activity against Pseudomonas aeruginosa assessed as inhibition of bacterial growth; format: functional
[28] = Metabolic stability in rat liver microsome assessed as parent compound remaining at 50 uM incubated for 1 hr in presence of NADPH regenerating system and GSH by LC-UV analysis; format: ADME; conditions: liver microsomes, read-out: Stability
[29] = Metabolic stability in human plasma assessed as parent compound remaining at 50 uM incubated for 60 mins by LC-UV analysis; format: ADME, cell-free; conditions: read-out: Stability
[30] = tested on: Klebsiella pneumoniae; assay: Antibacterial activity against Klebsiella pneumoniae assessed as inhibition of bacterial growth; format: functional
[31] = tested on: Bacillus anthracis; assay: Antibacterial activity against Bacillus anthracis assessed as inhibition of bacterial growth; format: functional
[32] = tested on: Staphylococcus aureus; assay: Antibacterial activity against Staphylococcus aureus assessed as inhibition of bacterial growth; format: functional
[33] = tested on: Clavibacter michiganensis; assay: Antibacterial activity against Clavibacter michiganensis assessed as inhibition of bacterial growth; format: functional
[34] = Metabolic stability in human liver microsome assessed as parent compound remaining at 50 uM incubated for 1 hr in presence of NADPH regenerating system and GSH by LC-UV analysis; format: ADME; conditions: liver microsomes, read-out: Stability
[35] = Metabolic stability in human liver microsome assessed as half life at 5 uM incubated for 1 hr in presence of NADPH regenerating system and GSH by LC-UV analysis; format: ADME; conditions: liver microsomes
[36] = Metabolic stability in human liver microsome assessed as intrinsic clearance at 5 uM incubated for 1 hr in presence of NADPH regenerating system and GSH by LC-UV analysis; format: ADME; conditions: liver microsomes, read-out: CLH
[37] = tested on: Staphylococcus aureus; assay: Additive antibacterial activity against methicillin-resistant Staphylococcus aureus assessed as fractional inhibitory concentration index in presence of ciprofloxacin by checker board method; format: functional
[38] = tested on: Clostridium tetani; assay: Antibacterial activity against Clostridium tetani assessed as inhibition of bacterial growth; format: functional

Row | Structure (SMILES) | MIC [2] [µM] | MIC [4] [µM] | MIC [8] [µM] | MIC [15] [µM] | MIC [16] [µM] | MIC [17] [µM] | MIC [18] [µM] | MIC [19] [µM] | MIC [21] [µM] | MIC [23] [µM] | MIC [25] [µM] | remaining at 1 h, 50 µM [28] [%] | remaining at 1 h, 50 µM [29] [%] | other results
1 | [C-]#[N+]c1ccc(NC(=O)COc2ccccc2)cc1 | 8 | 0.25 | 2 | ≥ 64 | 8 | 0.25 | ≥ 64 | ≥ 64 | 2 | 0.5 | 4 | – | – | Activity [1]: inactive; Activity [3]: Non-Toxic; Activity [5]: >=99.9%; Activity [6]: 10%; Activity [7]: inactive; fold change (FC) [9]: >4; MIC [10]: 4 µM; Activity [11]: > 70%; Activity [12]: < 70%; Activity [13]: Non-Toxic; Activity [14]: Active; Activity [20]: Active; fractional inhibitory concentration index (FICI) [22]: 0.75; Activity [24]: 94%
2 | [C-]#[N+]c1ccc(/C=C/c2ccccc2)cc1 | 8 | 1 | 4 | – | 8 | 1 | – | – | 8 | 2 | 8 | – | – | Activity [3]: Non-Toxic; Activity [12]: < 70%; Activity [20]: Active
3 | [C-]#[N+]C(=C)[C@@](Cc1ccc(OC)cc1)([N+]#[C-])[C@@H]1C[C@@H](OC(=O)CO)CC[C@@H]1O | – | – | – | – | – | – | – | – | – | – | – | – | – | MIC [26]: 0.52 µM (≈ 0.2 µg/mL); MIC [27]: 0.52 µM (≈ 0.2 µg/mL)
4 | COc1cc(Cc2cnc(N)nc2N)cc(OC)c1OC | – | – | – | – | – | – | – | – | – | – | – | – | – | Activity [1]: inactive
5 | [C-]#[N+]c1ccc(NC(=O)c2ccncc2)cc1 | > 8 | – | > 8 | ≥ 64 | > 8 | – | ≥ 64 | ≥ 64 | – | – | – | 29 | > 99 | –
6 | O=C(O)c1cn(C2CC2)c2cc(N3CCNCC3)c(F)cc2c1=O [CIPROFLOXACIN] | 0.38 | 0.38 | 0.75 | – | 0.75 | 0.19 | – | – | 0.75 | 0.38 | 0.75 | – | – | MIC [10]: 1 µM
7 | [C-]#[N+]/C(Cl)=C/C1(OC(C)=O)C(=O)Nc2ccccc21 (centres undefined) | – | – | – | – | – | – | – | – | – | – | – | – | – | MIC [30]: 0.7 µM (≈ 0.194 µg/mL); MIC [31]: 0.7 µM (≈ 0.194 µg/mL); MIC [32]: 0.18 µM (≈ 0.0498 µg/mL)
8 | [C-]#[N+]C(=C\c1ccc(O)cc1)/C(=C/c1ccc2c(c1)CCC(C)(C)O2)[N+]#[C-] | – | – | – | – | – | – | – | – | – | – | – | – | – | MIC [33]: 0.87 µM (≈ 0.31 µg/mL)
9 | [C-]#[N+]c1ccc(NC(=O)Cc2cccc(Cl)c2)cc1 | 8 | 0.25 | 2 | ≥ 64 | 8 | 0.25 | ≥ 64 | ≥ 64 | 4 | 0.5 | 4 | 53 | > 99 | remaining at 1 h, 50 µM [34]: 82%; Activity [1]: inactive; half-life at 5 µM [35]: 26.2 min; Activity [3]: Non-Toxic; Activity [5]: >=99.9%; Activity [6]: 10%; Activity [7]: inactive; fold change (FC) [9]: >4; MIC [10]: 4 µM; Activity [11]: > 70%; microsomal CLint at 5 µM [36]: 24.4 µL/min/mg; Activity [13]: Non-Toxic; fractional inhibitory concentration index (FICI) [37]: 0.75; Activity [14]: Active; Activity [20]: Active; fractional inhibitory concentration index (FICI) [22]: 0.75; Activity [24]: 94%
10 | [C-]#[N+]c1ccc(C(=O)NCc2ccccc2)cc1 | > 8 | – | > 8 | ≥ 64 | > 8 | – | ≥ 64 | ≥ 64 | – | – | – | 29 | 91 | –
11 | [C-]#[N+]c1ccc(NC(=O)Cc2ccccc2)cc1 | > 8 | 1 | 8 | ≥ 64 | > 8 | 1 | ≥ 64 | ≥ 64 | > 8 | 2 | > 8 | 20 | > 99 | –
12 | [C-]#[N+]C(=C\c1ccc(O)cc1)/C(=C/c1ccc(O)cc1)[N+]#[C-] [XANTOCILLIN] | – | – | – | – | – | – | – | – | – | – | – | – | – | MIC [38]: 0.69 µM (≈ 0.199 µg/mL); MIC [26]: 0.25 µM (≈ 0.0721 µg/mL); MIC [27]: 0.69 µM (≈ 0.199 µg/mL)
